Data as given in patent US7265152B2 (ViroPharma Incorporated, priority 2002, dated 2007).

What was measured:
[1] = system: HCV replicon (BB7 sequence) in Huh-7-Clone A cells; test: HCV replicon assay: ELISA of NS5A protein in replicon-containing cells (Inhibition of Viral RNA Replication); type: cell-based; conditions: Hepatitis C virus; Huh-7-Clone A, NS5A ELISA, 72-hour incubation; ranges of EC50; read-out: Replicon
Outline: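 Huh-7-Clone A cells carrying subgenomic BB7 HCV replicon (G418-selectable) incubated 72 h with compound. NS5A protein quantified by cell ELISA: glutaraldehyde fixation, anti-NS5A monoclonal plus HRP secondary, TMB read at OD 650 nm. EC50 derived from 8-point serial dilution dose curve.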

HCV NS5B = target: T1, HCV NS5B (Hepatitis C virus genotype 1b, UniProt Q9WMX2); test: Inhibition of viral RNA-dependent RNA polymerase (RdRp), in vitro biochemical assay; set-up: species or system HCV genotype 1b virus (BB7); conditions: purified His-tagged NS5B (BB7), carboxyl terminal 21 amino acids removed; read-out: HCV pol-BB7 IC50
T1 construct: fusion protein, of which the carboxyl terminal 21 amino acids were removed to enhance its solubility; His tag (GSHHHHHH); made in house; host or cells: E. coli
Outline: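 Purified recombinant NS5B from a genotype 1b consensus (BB7), His-tagged, E. coli-expressed, with the C-terminal 21 residues deleted. Inhibition of RdRp activity in vitro was measured, and IC50 is the concentration giving 50% inhibition.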

CNC(=O)c1c(-c2ccc(F)cc2)oc2cc(N(CCO)S(C)(=O)=O)c(OC)cc12 [Example 42, 2-(4-Fluoro-phenyl)-6-[(2-hydroxy-ethyl)-methanesulfonyl-amino]-5-methoxy-benzofuran-3-carboxylic acid methylamide]
EC50 [1]: < 1 µM | IC50 (HCV NS5B): ≤ 0.5 µM

CNC(=O)c1c(-c2ccc(F)cc2)oc2cc(N(CCO)S(C)(=O)=O)c(C3CC3)cc12 [Example 43, 5-Cyclopropyl-2-(4-fluoro-phenyl)-6-[(2-hydroxy-ethyl)-methanesulfonyl-amino]-benzofuran-3-carboxylic acid methylamide]
EC50 [1]: < 1 µM | IC50 (HCV NS5B): ≤ 0.5 µM

CCc1cc2c(C(=O)NC)c(-c3ccc(F)cc3)oc2cc1NS(C)(=O)=O [Example 44, 5-Ethyl-2-(4-fluoro-phenyl)-6-methanesulfonylamino-benzofuran-3-carboxylic acid methylamide]
EC50 [1]: < 10 µM | IC50 (HCV NS5B): ≤ 0.5 µM

CCc1cc2c(C(=O)NC)c(-c3ccc(F)cc3)oc2cc1N(C)S(C)(=O)=O [Example 45, 5-Ethyl-2-(4-fluoro-phenyl)-6-(methanesulfonyl-methyl-amino)-benzofuran-3-carboxylic acid methylamide]
EC50 [1]: < 1 µM | IC50 (HCV NS5B): ≤ 0.5 µM

CCc1cc2c(C(=O)NC)c(-c3ccc(F)cc3)oc2cc1N(CCO)S(C)(=O)=O [Example 46, 5-Ethyl-2-(4-fluoro-phenyl)-6-[(2-hydroxy-ethyl)-methanesulfonyl-amino]-benzofuran-3-carboxylic acid methylamide]
EC50 [1]: < 1 µM | IC50 (HCV NS5B): ≤ 0.5 µM

CNC(=O)c1c(-c2ccc(F)cc2)oc2cc(C3CCCN3C(C)=O)c(OC)cc12 (stereo not drawn) [Example 47, 6-(1-Acetyl-pyrrolidin-2-yl)-2-(4-fluoro-phenyl)-5-methoxy-benzofuran-3-carboxylic acid methylamide]
EC50 [1]: < 1 µM | IC50 (HCV NS5B): ≤ 0.5 µM

CNC(=O)c1c(-c2ccc(F)cc2)oc2cc(C3CNC(=O)O3)c(OC)cc12 (stereo not drawn) [Example 48, 2-(4-Fluoro-phenyl)-5-methoxy-6-(2-oxo-oxazolidin-5-yl)-benzofuran-3-carboxylic acid methylamide]
EC50 [1]: < 10 µM | IC50 (HCV NS5B): ≤ 0.5 µM

CNC(=O)c1c(-c2ccc(F)cc2)oc2cc(C(C)(C)O)c(OC)cc12 [Example 49, 2-(4-Fluoro-phenyl)-6-(1-hydroxy-1-methyl-ethyl)-5-methoxy-benzofuran-3-carboxylic acid methylamide]
EC50 [1]: < 1 µM | IC50 (HCV NS5B): ≤ 0.5 µM

CNC(=O)c1c(-c2ccc(F)cc2)oc2cc(-c3noc(C)n3)c(OC)cc12 [Example 50, 2-(4-Fluoro-phenyl)-5-methoxy-6-(5-methyl-[1,2,4]oxadiazol-3-yl)-benzofuran-3-carboxylic acid methylamide]
EC50 [1]: < 1 µM | IC50 (HCV NS5B): ≤ 0.5 µM

CNC(=O)c1c(-c2ccc(F)cc2)oc2cc(-c3c(C)noc3C)c(OCCCO)cc12 [Example 51, 6-(3,5-Dimethyl-isoxazol-4-yl)-2-(4-fluoro-phenyl)-5-(3-hydroxy-propoxy)-benzofuran-3-carboxylic acid methylamide]
EC50 [1]: < 1 µM | IC50 (HCV NS5B): ≤ 0.5 µM

CNC(=O)c1c(-c2ccc(F)cc2)oc2cc(N(C)S(C)(=O)=O)c(OCCN3CCOCC3)cc12 [Example 52, 2-(4-Fluoro-phenyl)-6-(methanesulfonyl-methyl-amino)-5-(2-morpholin-4-yl-ethoxy)-benzofuran-3-carboxylic acid methylamide]
EC50 [1]: < 1 µM | IC50 (HCV NS5B): ≤ 0.5 µM

CNC(=O)c1c(-c2ccccc2)oc2ccc(OCc3ccccc3-c3ccccc3)cc12 [Example 53, 5-(Biphenyl-2-ylmethoxy)-2-phenyl-benzofuran-3-carboxylic acid methylamide]
EC50 [1]: < 30 µM | IC50 (HCV NS5B): 5 to 30 µM

CNC(=O)c1c(-c2ccc(OC)cc2)oc2ccc(OC)cc12 [Example 54, 5-Methoxy-2-(4-methoxy-phenyl)-benzofuran-3-carboxylic acid methylamide]
EC50 [1]: < 10 µM | IC50 (HCV NS5B): 0.5 to 5 µM

CNC(=O)c1c(-c2cccc(C(F)(F)F)c2)oc2ccc(OC)cc12 [Example 55, 5-Methoxy-2-(3-trifluoromethyl-phenyl)-benzofuran-3-carboxylic acid methylamide]
EC50 [1]: < 30 µM | IC50 (HCV NS5B): 0.5 to 5 µM

CNC(=O)c1c(-c2ccc(C(F)(F)F)cc2)oc2ccc(OC)cc12 [Example 56, 5-Methoxy-2-(4-trifluoromethyl-phenyl)-benzofuran-3-carboxylic acid methylamide]
EC50 [1]: < 10 µM | IC50 (HCV NS5B): 0.5 to 5 µM

CCOc1ccc2oc(-c3ccccc3)c(C(=O)NC)c2c1 [Example 57, 5-Ethoxy-2-phenyl-benzofuran-3-carboxylic acid methylamide]
EC50 [1]: > 30 µM | IC50 (HCV NS5B): 0.5 to 5 µM

CNC(=O)c1c(-c2ccccc2F)oc2ccc(OC)cc12 [Example 58, 2-(2-Fluoro-phenyl)-5-methoxy-benzofuran-3-carboxylic acid methylamide]
EC50 [1]: < 10 µM | IC50 (HCV NS5B): 0.5 to 5 µM

CNC(=O)c1c(-c2ccccc2)oc2ccc(OC(C)C)cc12 [Example 59, 5-Isopropoxy-2-phenyl-benzofuran-3-carboxylic acid methylamide]
EC50 [1]: < 30 µM | IC50 (HCV NS5B): 0.5 to 5 µM

CCCCOc1ccc2oc(-c3ccccc3)c(C(=O)NC)c2c1 [Example 60, 5-Butoxy-2-phenyl-benzofuran-3-carboxylic acid methylamide]
EC50 [1]: < 30 µM | IC50 (HCV NS5B): 0.5 to 5 µM

CCCOc1ccc2oc(-c3ccccc3)c(C(=O)NC)c2c1 [Example 61, 2-Phenyl-5-propoxy-benzofuran-3-carboxylic acid methylamide]
EC50 [1]: < 30 µM | IC50 (HCV NS5B): 0.5 to 5 µM

CNC(=O)c1c(-c2cc(F)c(F)cc2F)oc2ccc(OC)cc12 [Example 62, 5-Methoxy-2-(2,4,5-trifluoro-phenyl)-benzofuran-3-carboxylic acid methylamide]
EC50 [1]: < 30 µM | IC50 (HCV NS5B): 5 to 30 µM

CNC(=O)c1c(-c2ccccc2)oc2c(C)cc(OC)cc12 [Example 63, 5-Methoxy-7-methyl-2-phenyl-benzofuran-3-carboxylic acid methylamide]
EC50 [1]: < 10 µM | IC50 (HCV NS5B): 0.5 to 5 µM

CNC(=O)c1c(-c2ccc(F)cc2)oc2ccc(OC(C)C)cc12 [Example 65, 2-(4-Fluoro-phenyl)-5-isopropoxy-benzofuran-3-carboxylic acid methylamide]
EC50 [1]: < 30 µM | IC50 (HCV NS5B): 0.5 to 5 µM

CNC(=O)c1c(-c2ccccc2Cl)oc2ccc(OC)cc12 [Example 66, 2-(2-Chloro-phenyl)-5-methoxy-benzofuran-3-carboxylic acid methylamide]
EC50 [1]: > 30 µM | IC50 (HCV NS5B): 5 to 30 µM

CNC(=O)c1c(-c2ccccc2)oc2cc(OC)ccc12 [Example 67, 6-Methoxy-2-phenyl-benzofuran-3-carboxylic acid methylamide]
EC50 [1]: < 10 µM | IC50 (HCV NS5B): 0.5 to 5 µM

CNC(=O)c1c(-c2ccco2)oc2ccc(OC)cc12 [Example 68, 2-Furan-2-yl-5-methoxy-benzofuran-3-carboxylic acid methylamide]
EC50 [1]: < 30 µM | IC50 (HCV NS5B): 0.5 to 5 µM

CNC(=O)c1c(-c2ccc(C)c(F)c2)oc2ccc(OC)cc12 [Example 69, 2-(3-Fluoro-4-methyl-phenyl)-5-methoxy-benzofuran-3-carboxylic acid methylamide]
EC50 [1]: < 10 µM | IC50 (HCV NS5B): ≤ 0.5 µM

CNC(=O)c1c(-c2ccc(Br)cc2)oc2ccc(OC)cc12 [Example 70, 2-(4-Bromo-phenyl)-5-methoxy-benzofuran-3-carboxylic acid methylamide]
EC50 [1]: < 10 µM | IC50 (HCV NS5B): ≤ 0.5 µM

CNC(=O)c1c(-c2ccc(F)c(C)c2)oc2ccc(OC)cc12 [Example 71, 2-(4-Fluoro-3-methyl-phenyl)-5-methoxy-benzofuran-3-carboxylic acid methylamide]
EC50 [1]: < 30 µM | IC50 (HCV NS5B): ≤ 0.5 µM

CNC(=O)c1c(-c2ccc(F)cc2)oc2ccc(Cl)cc12 [Example 73, 5-Chloro-2-(4-fluoro-phenyl)-benzofuran-3-carboxylic acid methylamide]
EC50 [1]: < 10 µM | IC50 (HCV NS5B): 0.5 to 5 µM

CNC(=O)c1c(-c2ccccc2)oc2ccc(C(C)(C)C)cc12 [Example 74, 5-tert-Butyl-2-phenyl-benzofuran-3-carboxylic acid methylamide]
EC50 [1]: < 10 µM | IC50 (HCV NS5B): ≤ 0.5 µM

CNC(=O)c1c(-c2ccc(C)cc2)oc2ccc(Cl)cc12 [Example 75, 5-Chloro-2-p-tolyl-benzofuran-3-carboxylic acid methylamide]
EC50 [1]: < 10 µM | IC50 (HCV NS5B): ≤ 0.5 µM

CNC(=O)c1c(-c2ccc(F)c(Cl)c2)oc2ccc(OC)cc12 [Example 76, 2-(3-Chloro-4-fluoro-phenyl)-5-methoxy-benzofuran-3-carboxylic acid methylamide]
EC50 [1]: < 10 µM | IC50 (HCV NS5B): 0.5 to 5 µM

CNC(=O)c1c(-c2ccc(Cl)c(F)c2)oc2ccc(OC)cc12 [Example 77, 2-(4-Chloro-3-fluoro-phenyl)-5-methoxy-benzofuran-3-carboxylic acid methylamide]
EC50 [1]: < 10 µM | IC50 (HCV NS5B): ≤ 0.5 µM

CNC(=O)c1c(-c2ccccc2)oc2ccc(COC)cc12 [Example 78, 5-Methoxymethyl-2-phenyl-benzofuran-3-carboxylic acid methylamide]
EC50 [1]: < 30 µM | IC50 (HCV NS5B): 0.5 to 5 µM

CNC(=O)c1c(-c2ccc(F)cc2)oc2cc(C)c(OC(C)C)cc12 [Example 79, 2-(4-Fluoro-phenyl)-5-isopropoxy-6-methyl-benzofuran-3-carboxylic acid methylamide]
EC50 [1]: < 10 µM | IC50 (HCV NS5B): ≤ 0.5 µM
